Data published in patent US6136821A, “Naphthyridine derivatives” (Novartis AG, priority 1996, dated 2000).

How the values were obtained:
human eosinophils = assay: Inhibition of eosinophil activation by formyl-MetLeuPhe (fMLP); oxidative burst (lucigenin chemiluminescence); format: cell-based; details: fMLP 1 μM, lucigenin 25 μM, purified human eosinophils
Description: Anti-inflammatory activity: Inhibition of eosinophil activation by formyl-MetLeuPhe (fMLP)
Purified human eosinophils (10^4 /well in 0.2 ml HBSS) are stimulated with fMLP (1 μM) in the presence of lucigenin (25 μM). Inhibition of the oxidative burst (measured as changes in chemiluminescence) is determined from dose response curves using the logistic equation.

Water solubility = format: physicochemical; details: N-methyl-D-glucamine salt

IC50 (human eosinophils) | water solubility (Water solubility) | Compound
6 nM | – | Nc1cc2cccnc2c(-c2cccc3nonc23)n1 [Example 2, 6-amino-8-(4-benzo[c]furazanyl)-1,7-naphthyridine]
– | water soluble | CNC[C@H](O)[C@@H](O)[C@H](O)[C@H](O)CO.O=C(O)c1ccc(-c2cc3cccnc3c(-c3cccc4nonc34)n2)cc1 [Example 34, 6-(4-carboxyphenyl)-8-(4-benzo[c]furazanyl)-1,7-napthyridine: salt with N-methyl-D-glucamine]
